Laboratory results as given in ChEMBL document CHEMBL4004854, “Pyrrolo[3',2':6,7]cyclohepta[1,2-b]pyridines with potent photo-antiproliferative activity” (Eur J Med Chem, 2017).
Activity calls are given as the source filed them. The calls are words filed in the database; no cut-off is given here.

How the values were obtained:
Jurkat [1] = experiment: Phototoxicity against human Jurkat cells assessed as reduction in cell viability preincubated for 30 mins followed by 1.25 J/cm2 UV light irradiation measured after 48 hrs by MTT assay; format: functional, cell-based; conditions: light or radiation study
MCF7 [2] = experiment: Induction of mitochondrial dysfunction in human MCF7 cells at 2 uM under dark condition measured after 0.33 to 2 hrs by mitotracker orange CMTM-ROS/LCS1 dye based confocal microscopic method; format: cell-based; conditions: mcf7, 2 µM
MCF7 [3] = experiment: Induction of lysosomal activation in human MCF7 cells at 2 uM under dark condition measured up to 2 hrs by lysotracker green DND26 dye based confocal microscopic method; format: cell-based; conditions: mcf7, 2 h
MCF7 [4] = experiment: Induction of mitochondrial dysfunction in human MCF7 cells at 2 uM upon UV light irradiation measured after 0.33 to 2 hrs by mitotracker orange CMTM-ROS/LCS1 dye based confocal microscopic method; format: functional, cell-based
MCF7 [5] = experiment: Induction of apoptosis in human MCF7 cells assessed as apoptotic cells at 20 uM upon UV light irradiation measured after 24 hrs by Annexin V-FITC/propidium iodide staining based flow cytometry (reference value: 22%); format: functional
MCF7 [6] = experiment: Induction of ROS generation in human MCF7 cells up to 4 uM measured after 2 hrs under dark condition by H2DCFDA staining based fluorescence assay; format: cell-based; conditions: mcf7, 2 h
MCF7 [7] = experiment: Phototoxicity against human MCF7 cells assessed as reduction in cell viability preincubated for 30 mins followed by 1.25 J/cm2 UV light irradiation measured after 48 hrs by MTT assay; format: functional, cell-based; conditions: MCF7, light or radiation study
[8] = Dark toxicity against human K562 cells assessed as reduction in cell viability after 72 hrs by MTT assay; format: cell-based
K562 [9] = experiment: Phototoxicity against human K562 cells assessed as reduction in cell viability preincubated for 30 mins followed by 1.25 J/cm2 UV light irradiation measured after 48 hrs by MTT assay; format: functional, cell-based; conditions: K562, light or radiation study
MCF7 [10] = experiment: Induction of apoptosis in human MCF7 cells assessed as live cells at 20 uM upon UV light irradiation measured after 24 hrs by Annexin V-FITC/propidium iodide staining based flow cytometry (reference value: 72%); format: functional
[11] = Dark toxicity against human Jurkat cells assessed as reduction in cell viability after 72 hrs by MTT assay; format: cell-based
MCF7 [12] = experiment: Induction of lysosomal activation in human MCF7 cells at 2 uM upon UV light irradiation measured up to 2 hrs by lysotracker green DND26 dye based confocal microscopic method; format: functional, cell-based
[13] = Dark toxicity against human MCF7 cells assessed as reduction in cell viability after 72 hrs by MTT assay; format: cell-based
Escherichia coli [14] = experiment: Induction of Escherichia coli pBR322 DNA single strand break assessed as open circular form DNA bands at 10 to 40 uM upon 7.5 J/cm2 UV-A light irradiation by ethidium bromide staining based UV transillumination assay
MCF7 [15] = experiment: Induction of apoptosis in human MCF7 cells assessed as apoptotic cells at 0.7 uM upon UV light irradiation measured after 24 hrs by Annexin V-FITC/propidium iodide staining based flow cytometry (reference value: 22%); format: functional
MCF7 [16] = experiment: Phototoxic index, ratio of CC50 for human MCF7 cells under dark condition to EC50 for human MCF7 cells under UV light irradiated condition
MCF7 [17] = experiment: Induction of ROS generation in human MCF7 cells at 4 uM preincubated for 30 mins followed by UV light irradiation measured after 2 hrs by H2DCFDA staining based fluorescence assay relative to control; format: functional
Jurkat [18] = experiment: Induction of lipid peroxidation in human Jurkat cells upon 2.5 J/cm2 UV light irradiation measured after 24 hrs by TBARS assay; format: functional, cell-based
K562 [19] = experiment: Phototoxic index, ratio of CC50 for human K562 cells under dark condition to EC50 for human K562 cells under UV light irradiated condition
[20] = Singlet oxygen sensitizing activity in aqueous acetonitrile solution irradiated with nanosecond laser flash photolysis assessed as lowest triplet-excited state by measuring short lived transient life time at 10^-4 M at 520 nanometer by spectroscopic method
[21] = Singlet oxygen sensitizing activity in aqueous acetonitrile solution irradiated with nanosecond laser flash photolysis assessed as lowest triplet-excited state by measuring long lived transient life time at 10^-4 M at 440 nanometer by spectroscopic method
MCF7 [22] = experiment: Induction of ROS generation in human MCF7 cells up to 4 uM preincubated for 30 mins followed by UV light irradiation measured after 2 hrs in presence of 200 to 500 nM antioxidant NAC by H2DCFDA staining based fluorescence assay; format: functional, cell-based
MCF7 [23] = experiment: Induction of mitochondrial dysfunction in human MCF7 cells assessed as organelle fusion at 2 uM upon UV light irradiation measured after 0.33 to 2 hrs by mitotracker orange CMTM-ROS/LCS1 dye based confocal microscopic method; format: functional, cell-based
[24] = Singlet oxygen sensitizing activity in aqueous acetonitrile solution irradiated with nanosecond laser flash photolysis assessed as lowest triplet-excited state by measuring short lived transient life time at 10^-4 M at 520 nanometer under air equilibrated condition by spectroscopic method
Escherichia coli [25] = experiment: Induction of Escherichia coli pBR322 DNA oxidative damage at 40 uM upon 7.5 J/cm2 UV-A light irradiation in presence of endonuclease-3 by ethidium bromide staining based electrophoresis
Jurkat [26] = experiment: Phototoxicity against human Jurkat cells assessed as cell viability at 0.075 uM preincubated for 30 mins followed by 2.5 J/cm2 UV light irradiation measured after 72 hrs in presence of hydroxyl radical scavenger DMTU by MTT assay relative to control; format: functional; conditions: light or radiation study, read-out: Activity
[27] = Induction of singlet oxygen photogeneration in aqueous acetonitrile solution of ADPA assessed as photobleaching of anthracene absorption upon 150 Watt mercury light irradiation at 2.3 10^-5M at 400 nanometer measured up to 100 mins
MCF7 [28] = experiment: Induction of lysosomal membrane impairment in human MCF7 cells at 2 uM upon UV light irradiation measured up to 2 hrs by lysotracker green DND26 dye based confocal microscopic method; format: functional, cell-based
MCF7 [29] = experiment: Induction of apoptosis in human MCF7 cells assessed as caspase-3 activation at 0.25 to 0.5 uM upon 2.5 J/cm2 UV light irradiation measured after 24 hrs by Western blot method; format: functional, cell-based
Jurkat [30] = experiment: Phototoxicity against human Jurkat cells assessed as cell viability at 0.075 uM preincubated for 30 mins followed by 2.5 J/cm2 UV light irradiation measured after 72 hrs in presence of vitamin E by MTT assay relative to control; format: functional; conditions: light or radiation study, read-out: Activity
MCF7 [31] = experiment: Induction of mitochondrial dysfunction in human MCF7 cells assessed as mild swelling at 2 uM upon UV light irradiation measured after 0.33 to 2 hrs by mitotracker orange CMTM-ROS/LCS1 dye based confocal microscopic method; format: functional, cell-based
[32] = Drug metabolism in aqueous acetonitrile solution assessed as by-product formation at 2.3 10^-5M upon light irradiation by HPLC analysis; format: physicochemical; conditions: buffer
[33] = Singlet oxygen sensitizing activity in aqueous acetonitrile solution irradiated with nanosecond laser flash photolysis assessed as lowest triplet-excited state by measuring short lived transient life time at 10^-4 M at 520 nanometer under oxygen saturated condition by spectroscopic method
Escherichia coli [34] = experiment: Induction of Escherichia coli pBR322 DNA oxidative damage at 40 uM upon 7.5 J/cm2 UV-A light irradiation in presence of Fpg by ethidium bromide staining based electrophoresis
MCF7 [35] = experiment: Induction of mitochondrial dysfunction in human MCF7 cells assessed as perinuclear clustering at 2 uM upon UV light irradiation measured after 0.33 to 2 hrs by mitotracker orange CMTM-ROS/LCS1 dye based confocal microscopic method; format: functional, cell-based
MCF7 [36] = experiment: Induction of apoptosis in human MCF7 cells assessed as tBID activation at 0.25 to 0.5 uM upon 2.5 J/cm2 UV light irradiation measured after 24 hrs by Western blot method; format: functional, cell-based
[37] = Induction of singlet oxygen photogeneration in aqueous acetonitrile solution of ADPA assessed as photobleaching of anthracene absorption upon 150 Watt mercury light irradiation at 2.3 10^-5M at 400 nanometer measured up to 100 mins by ferrioxalate actinometry
[38] = Drug metabolism in aqueous acetonitrile solution assessed as by-product formation at 2.3 10^-5M upon light irradiation by UV-absorption method; format: physicochemical; conditions: buffer
Jurkat [39] = experiment: Phototoxic index, ratio of CC50 for human Jurkat cells under dark condition to EC50 for human Jurkat cells under UV light irradiated condition
Escherichia coli [40] = experiment: Induction of Escherichia coli pBR322 DNA double strand break assessed as linear form DNA bands at 10 to 40 uM upon 7.5 J/cm2 UV-A light irradiation by ethidium bromide staining based UV transillumination assay
[41] = Singlet oxygen sensitizing activity in aqueous acetonitrile solution irradiated with nanosecond laser flash photolysis assessed as lowest triplet-excited state by measuring short lived transient life time at 10^-4 M at 520 nanometer under argon saturated condition by spectroscopic method
MCF7 [42] = experiment: Induction of apoptosis in human MCF7 cells assessed as necrotic cells at 0.7 uM upon UV light irradiation measured after 24 hrs by Annexin V-FITC/propidium iodide staining based flow cytometry relative to control; format: functional

Q: Which EC50 (Jurkat [1]) does the source give for `Cn1ccc2c1-c1c(cc(S(=O)(=O)c3ccccc3)c(=O)n1C)CCC2` here?
A: > 20 µM

Q: What about the Activity (MCF7 [2]) of the same molecule?
A: Non-Toxic

Q: And the Activity (MCF7 [3])?
A: Non-Toxic

Q: What about the Activity (MCF7 [4]) of the same molecule?
A: inactive

Q: What about the Activity (MCF7 [5]) of the same molecule?
A: 25%

Q: And the Activity (MCF7 [6])?
A: Non-Toxic

Q: And the EC50 (MCF7 [7])?
A: > 20 µM

Q: What about the CC50 at 72 h [8] of the same molecule?
A: > 20 µM

Q: And the EC50 (K562 [9])?
A: > 20 µM

Q: What about the Activity (MCF7 [10]) of the same molecule?
A: 66%

Q: And the CC50 at 72 h [11]?
A: > 20 µM

Q: What about the Activity (MCF7 [12]) of the same molecule?
A: inactive

Q: What about the CC50 at 72 h [13] of the same molecule?
A: > 20 µM

Q: For `CCOC(=O)c1cc2c(n1Cc1ccc(OC)cc1)-c1[nH]c(=O)c(S(=O)(=O)c3ccccc3)cc1CCC2`, which Activity (Escherichia coli [14]) is on record?
A: inactive

Q: What about the Activity (MCF7 [15]) of the same molecule?
A: 36%

Q: And the “Ratio CC50/EC50” value (MCF7 [16])?
A: >28.53

Q: What about the Activity (MCF7 [17]) of the same molecule?
A: <=150%

Q: And the EC50 (Jurkat [1])?
A: 0.21 µM

Q: And the Activity (MCF7 [2])?
A: Non-Toxic

Q: And the Activity (Jurkat [18])?
A: Dose-dependent effect

Q: What about the “Ratio CC50/EC50” value (K562 [19]) of the same molecule?
A: >71.43

Q: What about the Time [20] of the same molecule?
A: < 3.2 microsec

Q: And the Time [21]?
A: > 30 microsec

Q: And the Activity (MCF7 [22])?
A: inactive

Q: And the Activity (MCF7 [23])?
A: Active

Q: What about the Time [24] of the same molecule?
A: 1.2 microsec

Q: And the Activity (Escherichia coli [25])?
A: Active

Q: And the viability at 0.075 µM (Jurkat [26])?
A: 80 to 90%

Q: What about the Activity [27] of the same molecule?
A: Active

Q: What about the Activity (MCF7 [28]) of the same molecule?
A: Active

Q: And the Activity (MCF7 [29])?
A: Active

Q: What about the EC50 (MCF7 [7]) of the same molecule?
A: 0.7 µM

Q: And the viability at 0.075 µM (Jurkat [30])?
A: 80 to 90%

Q: What about the Activity (MCF7 [31]) of the same molecule?
A: Active

Q: And the Drug metabolism [32]?
A: Metabolite_Notdetected

Q: And the Time [33]?
A: 0.7 microsec

Q: What about the Activity (Escherichia coli [34]) of the same molecule?
A: Active

Q: And the Activity (MCF7 [35])?
A: Active

Q: What about the Activity (MCF7 [36]) of the same molecule?
A: Active

Q: And the Activity [37]?
A: Active

Q: What about the CC50 at 72 h [8] of the same molecule?
A: > 20 µM

Q: And the EC50 (K562 [9])?
A: 0.28 µM

Q: What about the Drug metabolism [38] of the same molecule?
A: Metabolite_Notdetected

Q: What about the CC50 at 72 h [11] of the same molecule?
A: > 20 µM

Q: And the “Ratio CC50/EC50” value (Jurkat [39])?
A: >95.24

Q: And the Activity (MCF7 [12])?
A: Active

Q: And the CC50 at 72 h [13]?
A: > 20 µM

Q: What about the Activity (Escherichia coli [40]) of the same molecule?
A: inactive

Q: And the Time [41]?
A: 3.2 microsec

Q: And the Activity (MCF7 [42])?
A: 18%
